# Target: CYP2E1 (Rattus norvegicus, UniProt P05182)
# Assay: inhibition of chlorzoxazone 6-hydroxylation in rat liver microsomes, HPLC
# Assay type: biochemical
# Sequence of CYP2E1 (P05182 2-493): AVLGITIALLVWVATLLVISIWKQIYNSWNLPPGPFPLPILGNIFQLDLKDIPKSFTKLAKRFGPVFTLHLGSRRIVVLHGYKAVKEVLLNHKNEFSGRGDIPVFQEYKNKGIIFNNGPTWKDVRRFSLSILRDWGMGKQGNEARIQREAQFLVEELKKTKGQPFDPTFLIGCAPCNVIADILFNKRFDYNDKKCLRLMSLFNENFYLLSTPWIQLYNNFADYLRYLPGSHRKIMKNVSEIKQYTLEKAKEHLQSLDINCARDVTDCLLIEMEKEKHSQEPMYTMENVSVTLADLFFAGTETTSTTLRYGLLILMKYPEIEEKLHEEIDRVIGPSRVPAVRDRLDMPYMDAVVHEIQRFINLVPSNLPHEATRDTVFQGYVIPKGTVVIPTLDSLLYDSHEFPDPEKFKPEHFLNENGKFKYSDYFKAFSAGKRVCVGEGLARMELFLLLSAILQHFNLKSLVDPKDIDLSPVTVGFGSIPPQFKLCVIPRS
structure (smiles),measurement,value
O=C(O)c1ccccc1O [salicylic acid],Ki,83.6 ± 2.73 µM

# Reference: paper PMC7071109, “Validation of an HPLC Method for the Simultaneous Quantification of Metabolic Reaction Products Catalysed by CYP2E1 Enzyme Activity: Inhibitory Effect of Cytochrome P450 Enzyme CYP2E1 by Salicylic Acid in Rat Liver Microsomes” (Molecules, 2020)
